Source: article PMC5929572, “Nucleobases and corresponding nucleosides display potent antiviral activities against dengue virus possibly through viral lethal mutagenesis” (PLoS Neglected Tropical Diseases, 2018)
Where two headings read alike, the source gives them in different places.

Key:
[1] = system: DENV-2 viral replicon; experiment: microbe, parasite or virus in culture; assay type: cell-based; details: for EC50: Dengue virus
Procedure: Compounds were evaluated for antiviral properties using BHK cells containing a DENV-2 viral replicon. 1.5 × 10^3 replicon-containing cells per well were plated in white opaque 96-well plates in the absence of antibiotic selection and the next day, compounds dissolved in DMSO were added to triplicate wells in culture medium. The compounds were initially tested at 10 and 50 μM final concentrations and each plate also contained DMSO alone, medium alone, and 6. Three days later, medium was replaced with a 1:1000 dilution of ViVi-Ren Live Cell Substrate (Promega) in DME minus phenol red and 10% FBS. Luminescence was measured with a Molecular Devices M5e plate reader. Mean values of triplicate wells were determined and compared to the mean value for the wells that received DMSO alone. […] The EC50 was determined by comparing luciferase activity for eight serial dilutions of the compound and DMSO treated cells using GraphPad Prism software.

[2] = Cell viability assay (MTS) in DENV replicon cells; assay type: cell-based, baby hamster; details: hamster, DENV replicon cells (BHK pD2-hRucPac-2ATG30), DENV replicon BHK cells, MTS, 72 h
[3] = system: DENV replicon cells (BHK pD2-hRucPac-2ATG30); experiment: Cell viability assay (MTS) in DENV replicon cells; assay type: cell-based, baby hamster
[4] = system: DENV-2; experiment: Titer reduction assay in Huh-7 cells, plaque assay on Vero cells; assay type: cell-based, DENV-2 New Guinea C strain; details: Dengue virus, DENV2, m.o.i. 0.2, 72 h
Procedure: (§1) Huh-7 cells were seeded in 12-well plates at a density of 4×10^5 cells per well in 1 mL culture medium. The next day, cells were washed and inoculated with DENV at a multiplicity of infection (m.o.i.) of 0.2 in 500μl infection medium (MEM containing 2% FBS and 10 mM HEPES). The inoculum was removed after 1h, cells were washed with PBS and then incubated in 1 mL MEM, 2% FBS, 1% pen/strep plus compound for 72 h. Viral supernatants were clarified by centrifugation for 5 min at 1500×g and aliquoted and stored at -80°C. Viral titers were determined using a plaque assay on Vero cells. Briefly, confluent Vero cell monolayers in 24-well plates were incubated at 37°C for 1 h with duplicate 300 μl samples of 10-fold serial dilutions of viral supernatants. The cells were then washed to remove unbound viral particles and overlaid with 500ul MEM containing 1.3% methylcellulose, 5% FBS and 10mM HEPES. After 5 days of incubation at 37°C and 5% CO2, cells were washed with PBS, fixed, and stained using 1% Giemsa. Infectious virus titer (pfu/mL) was determined using the following formula: number of plaques × dilution factor × (1/inoculation volume). The viral titer was presented as the mean of duplicate samples from a dilution yielding approximately 20–50 plaques per well.

[5] = Cell viability assay (MTS) in Huh-7 cells; assay type: cell-based; details: human
Procedure: The sensitivity of the cell lines to the compounds was examined using the 3-(4,5-dimethylthiazol-2-yl)-5-(3-carboxymethoxyphenyl)-2-(4-sulfophenyl)-2H-tetrazolium (MTS)-based tetrazolium reduction CellTiter 96 Aqueous Non-Radioactive cell proliferation assay (Promega G5430). The compounds were initially tested at 10 and 50 μM final concentrations. Each plate also contained DMSO alone, medium alone, and an inhibitory compound, 6. DENV replicon or Huh-7 cells were plated at a density of 1,500 or 8 × 10^3 cells, respectively, per well in 96-well plates containing 100 μl of culture medium overnight. Compounds were added to triplicate wells in culture medium and incubated for an additional 72 h. MTS reagent was then added to each well and incubated at 37°C in a humidified 5% CO2 atmosphere. The plates were read at various time points at a wavelength of 490 nm using a Molecular Devices M5e plate reader. Mean values of triplicate wells were determined and compared to the mean value for the wells that received DMSO alone. For compounds selected for dose-response experiments, the CC50 was determined by comparing cell viability for eight serial dilutions of the compound and DMSO treated cells using GraphPad Prism software.

[6] = system: DENV-2; experiment: Virus passage in presence of compound, supernatant titer by plaque assay; assay type: cell-based, DENV-2 New Guinea C strain; details: 3a 200 μM, Huh-7, passages 5 and 6; limit of detection 3.3 pfu/mL
Procedure: as §1, with “After 5 days of incubation at 37°C and 5% CO2, cells were washed with PBS, fixed, and stained using 1% Giemsa.” left out, “The viral titer was presented as the mean of duplicate samples from a dilution yielding approximately 20–50 plaques per well.” left out
(§2) Virus was passaged on Huh-7 cells supplemented with 200 μM 3a, 500 μM 3b or DMSO (0.5%). […] The virus titer in the harvested supernatant was determined by plating ten-fold serial dilutions onto single wells of a 24-well plate. […] Supernatant titer was determined from a single well where there were approximately 20–50 plaques when possible. […]

[7] = system: DENV-2; experiment: Virus passage in presence of compound, genome copy number by RT-qPCR (NS5); assay type: cell-based, DENV-2 New Guinea C strain; details: 3a 200 μM, Huh-7, passage 6; limit of detection 30 copies
Procedure: For qPCR determination of viral genome copy number, viral RNA was isolated from 140 μL of drug-treated or DMSO-treated infected culture supernatant using QIAamp Viral RNA mini kit (Qiagen), following manufacturer’s protocol. Viral RNA was quantified using the TaqMan RNA-to-CT 1-Step qPCR Kit (Applied Biosystems). Primers used for qPCR were 5’-[…]-3’ (forward) and 5’-[…]-3’ (reverse) amplifying a region numbering 8928–8988 in the genome (numbering starting from the beginning of genome, accession number KM204118). The qPCR FAM probe sequence is 5’-[…]-3’. Serial 10-fold dilutions of plasmid containing the NS5 gene of DENV were used to generate a standard curve for the quantification of viral RNA genome copy number based on cycle threshold (CT) values. […] Sequences were aligned over a 980-base region that had adequate quality sequencing reads for all clones. Only mutations present in both the forward and reverse reads of a clone were counted. All incidence-based determinants of mutation frequency (Mf min, Mf max, Mfe) were calculated as described.
as §2

[8] = system: DENV-2; experiment: Sequence analysis of prM/E region clones from passaged virus (mutation frequency); assay type: cell-based, DENV-2 New Guinea C strain
Procedure: For qPCR determination of viral genome copy number, viral RNA was isolated from 140 μL of drug-treated or DMSO-treated infected culture supernatant using QIAamp Viral RNA mini kit (Qiagen), following manufacturer’s protocol. Viral RNA was quantified using the TaqMan RNA-to-CT 1-Step qPCR Kit (Applied Biosystems). Primers used for qPCR were 5’-[…]-3’ (forward) and 5’-[…]-3’ (reverse) amplifying a region numbering 8928–8988 in the genome (numbering starting from the beginning of genome, accession number KM204118). The qPCR FAM probe sequence is 5’-[…]-3’. Serial 10-fold dilutions of plasmid containing the NS5 gene of DENV were used to generate a standard curve for the quantification of viral RNA genome copy number based on cycle threshold (CT) values. The limit of detection for NS5 plasmid dilutions was 30 copies (S1 Fig). […] Statistical analysis via GraphPad Prism 5 software. To obtain sequence data from viral RNA isolated at each passage, cDNA was generated via M-MLV reverse transcriptase and random hexamers (New England Biolab Inc.) per manufacturer’s instructions. An approximately 1600-base fragment covering membrane protein (prM) and envelop protein gene (E) of DENV-2 viral genome was amplified using PfuUltra II Fusion HS DNA polymerase (Agilent) with primers prMEfor (5'- […]-3') and prMErev (5'- […] -3'). PCR products were purified using Qiaquick PCR purification kit (Qiagen) and then digested with EcoRI and ligated into pcDNA3.1 for sequencing. Sequence for approximately 40–50 individual clones per sample was obtained from the University of Minnesota Genomics Center. Sequences were aligned over a 980-base region that had adequate quality sequencing reads for all clones. Only mutations present in both the forward and reverse reads of a clone were counted. All incidence-based determinants of mutation frequency (Mf min, Mf max, Mfe) were calculated as described.
Virus was passaged on Huh-7 cells supplemented with 200 μM 3a, 500 μM 3b or DMSO (0.5%). Huh-7 cells were seeded in 12-well plates and inoculated with DENV-2 as described for Titer reduction experiments above except an m.o.i. of 0.01 was used. After 3 days of compound treatment, 50 μL of the harvested supernatant was used to inoculate fresh Huh-7 cells in the continued presence of compound. The virus titer in the harvested supernatant was determined by plating ten-fold serial dilutions onto single wells of a 24-well plate. The wells were washed and overlaid as described in the Titer reduction assay above. If no plaques were obtained in any of the harvested supernatant dilutions, the undiluted supernatant was used. If plaques were not detectable, the virus titer was considered to be at the limit of detection, 1 plaque (3.3 pfu/mL). Supernatant titer was determined from a single well where there were approximately 20–50 plaques when possible. This experiment was repeated three times at the compound concentrations listed.

[9] = DENV2, 72 h, DENV replicon BHK cells, luciferase, 3 days, read-out: EC50
[10] = passage 2, 3a 200 μM, 3b 500 μM, Huh-7
[11] = passage 3, 3a 200 μM, 3b 500 μM, Huh-7

NC(=O)c1nc[nH]n1 [Compound 1a, 1,2,4-Triazole-3-carboxamide]
EC50 ([1]; DENV2, BHK, 72 h): 4.9 ± 1.6 µM
CC50 at 72 h [2]: > 1000 µM
CC50 ([3]; DENV replicon BHK cells, MTS, 72 h): > 665 µM
cytotoxicity ([3]; at 1000 μM, DENV replicon cells): did not show cytotoxicity

NC(=O)c1ncn([C@@H]2O[C@H](CO)[C@@H](O)[C@H]2O)n1 [Compound 1b, ribavirin, reference compound]
CC50 at 72 h [2]: 20 µM

NC(=O)c1nc[nH]c1O [Compound 2a, 5-Hydroxy-1H-imidazole-4-carboxamide]
EC50 [1, 9]: 2.4 µM
CC50 at 72 h [2]: 23 ± 4.2 µM

NC(=O)c1ncn([C@@H]2O[C@H](CO)[C@@H](O)[C@H]2O)c1O [Compound 2b, mizoribine, reference compound]
EC50 [1, 9]: 15 µM
CC50 at 72 h [2]: 33 ± 12 µM

NC(=O)c1nccnc1O [Compound 3a, 3-Hydroxy-2-pyrazinecarboxamide]
times more active than nucleobase 5a (favipiravir) ([1]; DENV replicon cells, EC50 compared): 5 times
CC50 at 72 h [2]: > 665 µM
EC50 [4]: 20 ± 11 µM
CC50 at 72 h [5]: > 1000 µM
infectious virus in supernatant [6]: no infectious virus was detected
genomic RNA in supernatant [7]: no genomic RNA was detected
number of mutations per clone compared to DMSO ([8]; 3a 200 μM passage 4, 3b 500 μM passage 3, p < 0.0001, Mann-Whitney U): significant difference
Mf max (maximum mutation frequency) [8, 10]: 24.6 per 10,000 nucleotides
Mf min (minimum mutation frequency) [8, 10]: 5.2 per 10,000 nucleotides
Mfe (entity level mutation frequency) [8, 10]: 2.5 ×10^−3
Number of clones with mutation/total [8, 10]: 26/36
Number of different mutations [8, 10]: 17
Number of haplotypes [8, 10]: 17
Number of total mutations [8, 10]: 80
Transition A→G, number of mutations [8, 10]: 3
Transition C→U, number of mutations [8, 10]: 4
Transition G→A, number of mutations [8, 10]: 3
Transition U→C, number of mutations [8, 10]: 1
Transversion A→U, number of mutations [8, 10]: 1
Transversion G→U, number of mutations [8, 10]: 2
Transversion U→A, number of mutations [8, 10]: 2
Transversion U→G, number of mutations [8, 10]: 1
Mf max (maximum mutation frequency) [8, 11]: 5.7 per 10,000 nucleotides
Mf min (minimum mutation frequency) [8, 11]: 2.7 per 10,000 nucleotides
Mfe (entity level mutation frequency) [8, 11]: 1.4 ×10^−3
Number of clones with mutation/total [8, 11]: 12/37
Number of different mutations [8, 11]: 9
Number of haplotypes [8, 11]: 9
Number of total mutations [8, 11]: 19
Transition C→U, number of mutations [8, 11]: 3
Transition G→A, number of mutations [8, 11]: 3
Transition U→C, number of mutations [8, 11]: 2
Transversion G→U, number of mutations [8, 11]: 1
Mf max (maximum mutation frequency) ([8]; passage 4, 3a 200 μM, Huh-7): 6.6 per 10,000 nucleotides
Mf min (minimum mutation frequency) ([8]; passage 4, 3a 200 μM, Huh-7): 3.9 per 10,000 nucleotides
Mfe (entity level mutation frequency) ([8]; passage 4, 3a 200 μM, Huh-7): 1.6 ×10^−3
Number of clones with mutation/total ([8]; passage 4, 3a 200 μM, Huh-7): 19/45
Number of different mutations ([8]; passage 4, 3a 200 μM, Huh-7): 16
Number of haplotypes ([8]; passage 4, 3a 200 μM, Huh-7): 15
Number of total mutations ([8]; passage 4, 3a 200 μM, Huh-7): 27
Transition A→G, number of mutations ([8]; passage 4, 3a 200 μM, Huh-7): 2
Transition C→U, number of mutations ([8]; passage 4, 3a 200 μM, Huh-7): 3
Transition G→A, number of mutations ([8]; passage 4, 3a 200 μM, Huh-7): 3
Transition U→C, number of mutations ([8]; passage 4, 3a 200 μM, Huh-7): 4
Transversion C→A, number of mutations ([8]; passage 4, 3a 200 μM, Huh-7): 2
Transversion U→A, number of mutations ([8]; passage 4, 3a 200 μM, Huh-7): 2
